Values after ≈ are worked out from the molar mass of the structure shown. Read-outs that look alike come from different tables or passages of the source.
Tests used:
P388 Leukemia = test: Antitumor activity against P388 leukemia in mice (increased life span); type: in vivo, CDF1 mice; settings: Mus musculus, P388, ip, 720 h
Method: Ascites were collected from the abdominal cavity of P388 ascites tumor-bearing cancer mice (DBA/2) on the 7th day after transplantation. A number of P388 cells in the ascites was counted, and a tumor cell floating liquid of 5×10^6 cells/ml was prepared using a physiological saline solution. Then, 0.2 ml of the solution containing 1×10^6 cells was transplanted into the abdominal cavity of CDF1 mice having a body weight of from 20 to 25 g.
The effect of the test compound was determined in terms of the ratio of average survival days of the group administered with the test compound to average survival days of the control group (non-medicated group) (i.e., an increased life span, ILS%).

Escherichia coli ATCC 26 = test: Antibacterial activity, agar dilution method (MIC); type: cell-based
Text: (§1) The antibacterial activity as determined by the agar dilution method using a medium prepared by dissolving 3 g of Bacto-Tryptone (a product of Difco Laboratories), 3 g of a meat extract, 1 g of an yeast extract, 1 g of glucose and 16 g of agar in one liter of water (pH 7).
EC: Escherichia coli ATCC 26

[1] = system: Bacillus subtilis No. 10707; test: Antibacterial activity, agar dilution method (MIC); type: cell-based
Text: as §1
BS: Bacillus subtilis No. 10707

[2] = system: Enterococcus faecium ATCC 10541; test: Antibacterial activity, agar dilution method (MIC); type: cell-based
Text: as §1
EF: Enterococcus faecium ATCC 10541

[3] = system: Staphylococcus aureus ATCC 6538P; test: Antibacterial activity, agar dilution method (MIC); type: cell-based; settings: for MIC: ATCC6538P
Text: as §1
SA: Staphylococcus aureus ATCC 6538P

[4] = system: Klebsiella pneumoniae ATCC 10031; test: Antibacterial activity, agar dilution method (MIC); type: cell-based
Text: as §1
KP: Klebsiella pneumoniae ATCC 10031

[5] = ATCC26, EC: Escherichia coli ATCC 26, pH 7, read-out: MIC (minimum growth inhibitory concentration)
[6] = BS: Bacillus subtilis No. 10707, pH 7, read-out: MIC (minimum growth inhibitory concentration)
[7] = ATCC10541, EF: Enterococcus faecium ATCC 10541, pH 7, read-out: MIC (minimum growth inhibitory concentration)
[8] = SA: Staphylococcus aureus ATCC 6538P, agar dilution, pH 7, read-out: MIC (minimum growth inhibitory concentration)
[9] = ATCC10031, KP: Klebsiella pneumoniae ATCC 10031, agar dilution, pH 7, read-out: MIC (minimum growth inhibitory concentration)

Compound | MIC (Escherichia coli ATCC 26; [5]) [mg/L] | MIC [1, 6] [mg/L] | MIC [2, 7] [mg/L] | MIC [3, 8] [mg/L] | MIC [4, 9] [mg/L] | further results
C/C1=C\C(OC(=O)CNC(=O)CCNC(=O)OCc2ccccc2)C(=O)/C=C/C=C\c2csc(n2)C(C)NC(=O)CC2(CC1)[S+]([O-])SC(=O)C2(C)O (stereo not drawn) [Compound 111] | 2.6 (≈ 3.36 µM) | 0.081 (≈ 0.105 µM) | 0.16 (≈ 0.207 µM) | 0.33 (≈ 0.427 µM) | 0.041 (≈ 0.053 µM) | ILS at 16 mg/kg (P388 Leukemia; 16 mg/kg, single i.p. 24 hours after transplantation, CDF1 mice, 30 days observation): 76%
COC1(OC2/C=C(\C)CCC3(CC(=O)NC(C)c4nc(cs4)/C=C\C=C\C2=O)[S+]([O-])SC(=O)C3(C)O)CCOCC1 (stereo not drawn) [Compound 90] | 0.65 (≈ 1.04 µM) | 0.02 (≈ 0.032 µM) | 0.041 (≈ 0.0656 µM) | 0.041 (≈ 0.0656 µM) | 0.16 (≈ 0.256 µM) | –
CC(=O)NCC(=O)OC1/C=C(\C)CCC2(CC(=O)NC(C)c3nc(cs3)/C=C\C=C\C1=O)[S+]([O-])SC(=O)C2(C)O (stereo not drawn) [Compound 100] | – | – | – | – | – | ILS at 4 mg/kg (P388 Leukemia; read-out: ILS (increased life span)): 66%; MIC (Escherichia coli ATCC 26; Escherichia coli, ATCC26, pH 7, read-out: MIC (minimum growth inhibitory concentration), EC: Escherichia coli ATCC 26): 2.6 mg/L (≈ 4.26 µM); MIC ([1]; Bacillus subtilis, NO.10707, pH 7, read-out: MIC (minimum growth inhibitory concentration), BS: Bacillus subtilis No. 10707): 0.081 mg/L (≈ 0.133 µM); MIC ([2]; Enterococcus faecium, ATCC10541, pH 7, read-out: MIC (minimum growth inhibitory concentration), EF: Enterococcus faecium ATCC 10541): 0.041 mg/L (≈ 0.0672 µM); MIC ([3]; Staphylococcus aureus, pH 7, read-out: MIC (minimum growth inhibitory concentration)): 0.041 mg/L (≈ 0.0672 µM); MIC ([4]; Klebsiella pneumoniae, ATCC10031, pH 7, read-out: MIC (minimum growth inhibitory concentration)): 0.041 mg/L (≈ 0.0672 µM)
CC(=O)OC1(C)C(=O)S[S+]([O-])C12CC/C(C)=C/C(O)C(=O)/C=C/C=C\c1csc(n1)C(C)NC(=O)C2 (stereo not drawn) [Compound 25] | 42 (≈ 76 µM) | 10 (≈ 18.1 µM) | 2.6 (≈ 4.7 µM) | 1.3 (≈ 2.35 µM) | 10 (≈ 18.1 µM) | –
C/C1=C\C(OC(=O)CNC(=O)CNC(=O)c2ccccc2)C(=O)/C=C/C=C\c2csc(n2)C(C)NC(=O)CC2(CC1)[S+]([O-])SC(=O)C2(C)O (stereo not drawn) [Compound 109] | 3.2 (≈ 4.39 µM) | 0.35 (≈ 0.48 µM) | 0.081 (≈ 0.111 µM) | 0.081 (≈ 0.111 µM) | 0.041 (≈ 0.0563 µM) | ILS at 8 mg/kg (P388 Leukemia; 8.0 mg/kg, single i.p. 24 hours after transplantation, CDF1 mice, 30 days observation, read-out: ILS (increased life span)): 78%
CCOC(=O)OC1/C=C(\C)CCC2(CC(=O)NC(C)c3nc(cs3)/C=C\C=C\C1=O)[S+]([O-])SC(=O)C2(C)O (stereo not drawn) [Compound 10] | 4.2 (≈ 7.21 µM) | 0.13 (≈ 0.223 µM) | 0.26 (≈ 0.446 µM) | 0.26 (≈ 0.446 µM) | 4.2 (≈ 7.21 µM) | –
CCOC(C)OC1/C=C(\C)CCC2(C(C)(O)C(=O)SCc3oc(=O)oc3C)CC(=O)N(C(C)c3nc(cs3)/C=C\C=C\C1=O)[S+]2[O-] (stereo not drawn) [Compound 87] | 6.8 (≈ 9.79 µM) | 0.11 (≈ 0.158 µM) | 54 (≈ 77.7 µM) | 0.85 (≈ 1.22 µM) | 1.7 (≈ 2.45 µM) | –
C/C1=C\C(O)C(=NOCc2ccccc2)/C=C/C=C\c2csc(n2)C(C)NC(=O)CC2(CC1)[S+]([O-])SC(=O)C2(C)O (stereo not drawn) [Compound 69] | 1.8 (≈ 2.92 µM) | 0.028 (≈ 0.0455 µM) | 0.028 (≈ 0.0455 µM) | 0.057 (≈ 0.0926 µM) | 0.23 (≈ 0.373 µM) | –
COCOC1/C=C(\C)CCC2(CC(=O)NC(C)c3nc(cs3)/C=C\C=C\C1=O)[S+]([O-])SC(=O)C2(C)O (stereo not drawn) [Compound 30] | 8.3 (≈ 15 µM) | 0.033 (≈ 0.0595 µM) | 0.065 (≈ 0.117 µM) | 0.13 (≈ 0.234 µM) | 1 (≈ 1.8 µM) | –
C/C1=C\C(OC(=O)c2ccc(F)cc2)C(=O)/C=C/C=C\c2csc(n2)C(C)NC(=O)CC2(CC1)[S+]([O-])SC(=O)C2(C)O (stereo not drawn) [Compound 8] | 1.3 (≈ 2.05 µM) | 0.02 (≈ 0.0316 µM) | 0.081 (≈ 0.128 µM) | 0.081 (≈ 0.128 µM) | 1.3 (≈ 2.05 µM) | –
C/C1=C\C(OC2CCCCO2)C(=O)/C=C/C=C\c2csc(n2)C(C)N2C(=O)CC(C(C)(O)C(=O)SCc3oc(=O)oc3C)(CC1)[S+]2[O-] (single isomer, unassigned) [Compound 64] | – | – | – | – | – | MIC (minimum growth inhibitory concentration) (Escherichia coli ATCC 26; EC: Escherichia coli ATCC 26, pH 7): 5.2 mg/L (≈ 7.36 µM); MIC (minimum growth inhibitory concentration) ([1]; BS: Bacillus subtilis No. 10707, pH 7): 0.16 mg/L (≈ 0.226 µM); MIC (minimum growth inhibitory concentration) ([2]; EF: Enterococcus faecium ATCC 10541, pH 7): 1.3 mg/L (≈ 1.84 µM); MIC (minimum growth inhibitory concentration) ([3]; SA: Staphylococcus aureus ATCC 6538P, agar dilution, pH 7): 0.65 mg/L (≈ 0.92 µM); MIC (minimum growth inhibitory concentration) ([4]; KP: Klebsiella pneumoniae ATCC 10031, agar dilution, pH 7): 5.2 mg/L (≈ 7.36 µM)
C/C1=C\C(OC(=O)CNC(=O)[C@H](CO)NC(=O)OCc2ccccc2)C(=O)/C=C/C=C\c2csc(n2)C(C)NC(=O)CC2(CC1)[S+]([O-])SC(=O)C2(C)O (stereo partly drawn) [Compound 116] | 4.2 (≈ 5.32 µM) | 0.033 (≈ 0.0418 µM) | 0.033 (≈ 0.0418 µM) | 0.033 (≈ 0.0418 µM) | 0.033 (≈ 0.0418 µM) | –

Reference: patent US5733924A, “DC 107 derivatives and treatment methods” (Kyowa Hakko Kogyo Co., Ltd., priority 1995, dated 1998)
